Experimental findings from publication PMC2794843, “Differential regulation of muscarinic M1 receptors by orthosteric and allosteric ligands” (BMC Pharmacology, 2009) are described below.

In general, EC50 refers to the concentration at which the effect is half-maximal. High values mean a need for much substance, low ones an effect from little substance. As a reminder, the pEC50 is the EC50 on a negative log10 scale, so that one unit is a factor of ten. Low values mean a large EC50, high ones a small EC50.

For assay [1], the target named is T1, human muscarinic M1 receptor (hM1) (Homo sapiens, UniProt P11229).
T1 construct: gene CHRM1; full-length hM1
T1 sequence (P11229 1-460): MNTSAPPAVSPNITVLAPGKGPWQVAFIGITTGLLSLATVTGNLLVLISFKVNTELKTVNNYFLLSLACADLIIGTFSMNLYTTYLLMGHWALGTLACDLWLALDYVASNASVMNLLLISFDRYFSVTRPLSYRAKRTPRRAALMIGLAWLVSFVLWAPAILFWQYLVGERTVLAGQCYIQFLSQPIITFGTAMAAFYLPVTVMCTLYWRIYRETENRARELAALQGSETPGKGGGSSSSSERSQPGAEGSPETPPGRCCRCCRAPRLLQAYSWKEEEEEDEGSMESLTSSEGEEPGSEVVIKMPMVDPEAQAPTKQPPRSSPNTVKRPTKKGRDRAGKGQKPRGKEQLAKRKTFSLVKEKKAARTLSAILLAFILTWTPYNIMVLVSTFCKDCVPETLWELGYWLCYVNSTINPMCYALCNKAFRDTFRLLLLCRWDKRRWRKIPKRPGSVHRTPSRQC
Nature of the assay: R-SAT, transiently transfected NIH-3T3 cells. As to conditions: for pEC50: agonist. It counts as cell-based. The source says:
R-SAT, transiently transfected NIH-3T3 cells on human muscarinic M1 receptor (hM1)

In assay [2] the target is T1, human muscarinic M1 receptor (hM1). Nature of the assay: PI hydrolysis, CHO-M1 cells. The following applies: partial agonist; 60 min, 37°C, 10 mM LiCl; allosteric component. It counts as cell-based. The source says:
PI hydrolysis, CHO-M1 cells on human muscarinic M1 receptor (hM1)

Take `CCCCC1CCN(CCCN2C(=O)COc3cc(Cl)ccc32)CC1` [AC-260515, 4-[3-(4-butyl-piperidin-1-yl)-propyl]-7-chloro-2H-benzo[b][1, 4]oxazin-3-one]: the EC50 in assay [1] is 251 nM.

Turning to `CCCCC1CCN(CCCN2C(=O)COc3cc(F)ccc32)CC1` [AC-260977, (R)-4-[3-(4-butylpiperidin-1-yl)propyl]-7-fluoro-2H-benzo[b][1, 4]oxazin-3-one], the pEC50 in assay [1] is listed as 7.7 ± 0.1.

With `O=C1COc2cc(F)ccc2N1CCCN1CCC(OCC2CC2)CC1` [AC-262469, 4-[3-(4-cyclopropylmethyloxypiperidin-1-yl)propyl]-7-fluoro-2H-benzo[b][1, 4]oxazin-3-one], in assay [1], the pEC50 worked out at 7.2 ± 0.

With `Clc1ccc2c(c1)N=C(N1CCNCC1)c1ccccc1N2` [NDMC], the “PI Hydrolysis / pEC50” value in assay [2] is listed as 7.1 ± 0.4.
